Earlier results in Sander's compilation of Henry's law constants (doi:10.1021/je900477x).
“And” between values parts separate entries of the source, which are not always exact repeats. Equal entries are not always repeated.

Assay: Henry solubility constant Hcp at 298.15 K (mol/(m3 Pa))
Settings: reference: Ma et al. (2010b); cited value

## c1ccc2c(c1)-c1cccc3cccc-2c13 [benzo[jk]fluorene]
  Henry solubility constant Hcp: 0.69 and 0.75

## c1ccc2c(c1)-c1cccc3c1c-2cc1ccccc13 [benzo[b]fluoranthene]
  Henry solubility constant Hcp: 15

## c1ccc2cc3c(cc2c1)-c1cccc2cccc-3c12 [benzo[k]fluoranthene]
  Henry solubility constant Hcp: 17 and 18

## c1ccc2c(c1)Cc1ccccc1-2 [2,3-benzindene]
  Henry solubility constant Hcp: 0.11

## c1cc2c3c(cccc3c1)CC2 [acenaphthene]
  Henry solubility constant Hcp: 0.072 and 0.07

## c1ccc2cc3ccccc3cc2c1 [anthracene]
  Henry solubility constant Hcp: 0.2

## c1ccc2ccccc2c1 [naphthalene]
  Henry solubility constant Hcp: 0.021 and 0.022

## C1=Cc2cccc3cccc1c23 [acenaphthylene]
  Henry solubility constant Hcp: 0.082 and 0.1

## c1ccc2c(c1)-c1ccc3ccc4cccc5cc-2c1c3c45 [indeno[1,2,3-cd]pyrene]
  Henry solubility constant Hcp: 29 and 20

## c1ccc2c(c1)cc1ccc3cccc4ccc2c1c34 [benzo[a]pyrene]
  Henry solubility constant Hcp: 20 and 13

## c1ccc2c(c1)ccc1c3ccccc3ccc21 [chrysene]
  Henry solubility constant Hcp: 2.3 and 2.7

## c1cc2ccc3ccc4ccc5cccc6c(c1)c2c3c4c56 [benzo[ghi]perylene]
  Henry solubility constant Hcp: 30 and 24

## c1ccc2c(c1)ccc1ccccc12 [phenanthrene]
  Henry solubility constant Hcp: 0.23
